Earlier results, collected in patent publication US7834038B2, “Methods for preparing nonpeptidic oligomers from amino acids” (New York University, priority 2005, dated 2010).
Entries after “also recorded” stand apart in the source; their conditions may differ.

Target: HIV-1 protease (Human immunodeficiency virus type 1 group M subtype B, UniProt P04585)
Conditions: known inhibitors, statement in words

O=C(N[C@H]1c2ccccc2C[C@H]1O)[C@H](Cc1ccccc1)CC(O)C[C@@H](Cc1ccccc1)C(=O)N[C@H]1c2ccccc2C[C@H]1O [L-700,417]
inhibition of HIV-1 protease: very high affinities

CC(C)[C@H](NC(=O)OCc1ccccc1)C(=O)N[C@@H](Cc1ccccc1)[C@@H](O)[C@H](Cc1ccccc1)NC(=O)[C@H](NC(=O)OCc1ccccc1)C(C)C [A-74704]
inhibition of HIV-1 protease: very high affinities; also recorded: powerful inhibitor
